From patent publication US6596772B1, “Phosphate mimics and methods of treatment using phosphatase inhibitors” (Sugen, Inc., priority 1999, dated 2003) come the findings set out here.

One may read the IC50 as the concentration at which inhibition is half-maximal.

One experiment has as its system PTPs. Description: Direct comparison of R groups against the PTPs. Particulars: change of the R group from CF3SO2NH—. Type of experiment: biochemical, human. How it is done:
(§1) The effect of the compounds on PTP was evaluated at 25° C. using pNPP or FDP as substrate. PTP was pre-incubated for fifteen minutes with various concentrations of compound. Substrate was then added at a fixed concentration (usually equal to the Km previously calculated). After 10 minutes, NaOH was added to stop the reaction. The hydrolysis of pNPP was followed at 410 nm on the Biotek Powerwave 200 microplate scanning spectrophotometer. The percent inhibition was calculated as follows: Percent Inhibition=[(control signal−compound signal)/control signal] ×100%. The IC50 was then determined by interpolation of a percent inhibition versus compound concentration plot.

The target of the next experiment is T1, PTP ZETA (Homo sapiens, UniProt P23471).
T1 construct: made in house; host or cells: E. coli BL-21 (pGEX 6P-1)
T1 sequence (P23471 1667-2028 limits assumed): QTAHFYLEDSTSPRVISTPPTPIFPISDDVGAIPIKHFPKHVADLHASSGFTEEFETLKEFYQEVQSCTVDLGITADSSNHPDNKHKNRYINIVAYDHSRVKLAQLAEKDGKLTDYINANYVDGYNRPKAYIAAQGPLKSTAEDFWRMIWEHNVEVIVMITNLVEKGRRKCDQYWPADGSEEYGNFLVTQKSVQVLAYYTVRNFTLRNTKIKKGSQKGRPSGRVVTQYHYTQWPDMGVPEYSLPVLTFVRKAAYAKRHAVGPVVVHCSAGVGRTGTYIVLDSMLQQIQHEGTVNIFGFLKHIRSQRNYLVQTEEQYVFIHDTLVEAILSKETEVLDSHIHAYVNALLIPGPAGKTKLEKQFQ
Description: PTP IC50 assay, pNPP or FDP as substrate. Format: biochemical. To be noted: 25° C. How it is done:
(§2) The following in vitro assay procedure is preferred to determine the level of activity and effect of the different compounds of the present invention on one or more of the PTPs. Similar assays can be designed along the same lines for any PTP using techniques well known in the art.
(§3) The catalytic assays described herein are performed in a 96-well format. The general procedure begins with the determination of PTP optimal pH using a three-component buffer system that minimizes ionic strength variations across a wide range of buffer pH. Next, the Michaelis-Menten constant, or Km, is determined for each specific substrate-PTP system. This Km value is subsequently used as the substrate reaction concentration for compound screening. Finally, the test PTP is exposed to varying concentrations of compound for fifteen minutes and allowed to react with substrate for ten minutes. The results are plotted as percent inhibition versus compound concentration and the IC50 interpolated from the plot.
(§4) All assays were performed using pNPP or FDP as substrate. The optimum pH was determined for each PTP used.
(§5) PTPase activity was assayed at 25° C. in a 100-μl reaction mixture containing an appropriate concentration of pNPP or FDP as substrate. The reaction was initiated by addition of the PTP and quenched after 10 min by addition of 50 μl of IN NaOH. The non-enzymatic hydrolysis of the substrate was corrected by measuring the control without the addition of the enzyme. The amount of p-nitrophenol produced was determined from the absorbance at 410 nm. To determine the kinetic parameter, Km, the initial velocities were measured at various substrate concentrations and the data were fitted to the Michaelis equation where velocity=(Vmax*[S])/(Km+[S]), and [S]=substrate reaction concentration.
as §1
(§6) Plasmids designed for bacterial GST-PTP fusion protein expression were derived by insertion of PCR-generated human PTP fragments into pGEX vectors (Pharmacia Biotech). Several of these constructs were then used to subclone phosphatases into pFastBac-1for expression in Sf-9 insect cells. Oligonucleotides used for the initial amplification of PTP genes are shown below. The cDNAs were prepared using the Gilbo BRL superscript preamplification system on RNAs purchased from Clontech.
The PTP Zeta cDNA was amplified from human placenta single strand cDNA (Clontech RNA) using the following oligonucleotides 5′oligo: 5′-[…]-3′ (SEQ ID NO: 10) 3′oligo: 5′-[…]-3′ (SEQ ID NO: 11) and subsequently ligated into pGEX 6P-1 Eco RI/Xho I sites.

The target in the next experiment is T2, PTP PEST (Homo sapiens, UniProt Q05209).
T2 construct: made in house; host or cells: E. coli BL-21 (pGEX 6P-1)
T2 sequence (Q05209 1-343 limits assumed): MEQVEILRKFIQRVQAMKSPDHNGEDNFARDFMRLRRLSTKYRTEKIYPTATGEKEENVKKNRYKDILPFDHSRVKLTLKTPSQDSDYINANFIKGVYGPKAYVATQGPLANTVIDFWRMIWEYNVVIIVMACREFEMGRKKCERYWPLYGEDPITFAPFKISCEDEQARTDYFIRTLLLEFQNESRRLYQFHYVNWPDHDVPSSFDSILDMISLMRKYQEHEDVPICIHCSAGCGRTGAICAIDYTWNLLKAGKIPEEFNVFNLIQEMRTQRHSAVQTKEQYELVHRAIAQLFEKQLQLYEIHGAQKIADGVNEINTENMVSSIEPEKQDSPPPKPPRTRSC
Description: PTP IC50 assay, pNPP or FDP as substrate. Format: biochemical. To be noted: 25° C. How it is done:
as §2, §3, §4, §5, §1, §6
The PTP PEST CDNA was amplified from an HeLa cDNA library (Clonetech RNA) using the following oligonucleotides: 5′oligo: 5′-[…]-3′ (SEQ ID NO: 14) 3′oligo: 5′-[…]-3′ (SEQ ID NO: 15) It was subsequently ligated into the Eco RI/Xho I sites of pGEX 6P-1.

Another experiment concerns the target T3, PTP DEP1 (Homo sapiens, UniProt Q12913).
T3 construct: GST-fusion proteins encompassing the entire cytoplasmic domain was done by PCR; made in house; host or cells: E. coli BL-21 (pGEX 2T)
T3 sequence (Q12913 997-1337 limits assumed): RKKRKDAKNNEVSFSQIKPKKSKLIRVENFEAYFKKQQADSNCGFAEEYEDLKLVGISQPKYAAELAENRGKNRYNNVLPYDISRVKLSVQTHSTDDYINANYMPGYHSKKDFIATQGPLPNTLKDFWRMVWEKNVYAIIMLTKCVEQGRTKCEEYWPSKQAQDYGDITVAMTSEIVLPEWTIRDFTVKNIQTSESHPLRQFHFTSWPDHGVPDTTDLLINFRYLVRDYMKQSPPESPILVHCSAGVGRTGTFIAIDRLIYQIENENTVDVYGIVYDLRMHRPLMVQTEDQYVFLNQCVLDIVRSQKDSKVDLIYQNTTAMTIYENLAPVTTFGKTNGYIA
Description: PTP IC50 assay, pNPP or FDP as substrate. Type of experiment: biochemical. Particulars: 25° C. How it is done:
as §2, §3, §4, §5, §1, §6
The full length DEP1 cDNA was isolated from a human mammary cDNA library (Clontech). The construction of GST-fusion proteins encompassing the entire cytoplasmic domain was done by PCR using the following oligos; 5′oligo: 5′-[…]-3′ (SEQ ID NO: 20) 3′oligo: 5′-[…]-3′ (SEQ ID NO: 21) It was subsequently ligated into the Eco RI/Bam H1 sites of pGEX 2T.

`CS(=O)(=O)Nc1ccc(Oc2ccc(Oc3ccc(NS(C)(=O)=O)cc3)cc2)cc1` [CH3SO2NH—]: in the experiment on PTPs, the “activity relative to the CF3SO2NH— compound” value is recorded as “dramatic decrease in activity”.
Turning to `O=S(=O)(c1ccc(COCc2ccc(S(=O)(=O)C(F)(F)F)cc2)cc1)C(F)(F)F` [Example 1, Bis (4-trifluoromethylsulfonylbenzyl) ether], the 50% inhibitory concentration (IC50) at PTP ZETA is more than 100 µM; on PTP PEST, more than 100 µM; on PTP DEP1, 24.2 µM.
With `O=S(=O)(c1ccc(COc2ccc(S(=O)(=O)C(F)(F)F)cc2)cc1)C(F)(F)F` [Example 2, 4-Trifluoromethylsulfonylbenzyl 4-trifluoromethylsulfonylphenyl ether], the half-inhibitory concentration (IC50) on PTP ZETA is more than 100 µM; on PTP PEST, 25.6 µM; on PTP DEP1, 16.5 µM.
For `O=C(c1ccccc1)N(Cc1ccc(S(=O)(=O)C(F)(F)F)cc1)Cc1ccc(S(=O)(=O)C(F)(F)F)cc1` [Example 3, N,N-Bis(4-trifluoromethylsulfonylbenzyl)benzamide], in that order: more than 100 µM, more than 100 µM and 40.9 µM.
On to `O=S(=O)(c1ccc(CCc2ccc(S(=O)(=O)C(F)(F)F)cc2)cc1)C(F)(F)F` [Example 4, 1,2-Bis(4-trifluoromethylsulfonylphenyl)ethane], for which the IC50 at PTP ZETA is more than 100 µM; at PTP PEST, more than 100 µM; on PTP DEP1, 26.1 µM.
For `O=C(NCc1ccc(S(=O)(=O)C(F)(F)F)cc1)c1ccc(S(=O)(=O)C(F)(F)F)cc1` [Example 5, N-(4-Trifluoromethylsulfonylbenzyl)-4-trifluoromethylsulfonylbenzamide], the concentration for half-maximal inhibition (IC50) at PTP ZETA, at PTP PEST and at PTP DEP1 was more than 100 µM throughout.
In the case of `O=C(NCc1ccc(S(=O)(=O)C(F)(F)F)cc1)c1ccccc1` [Example 6, N-(4-Trifluoromethylsulfonylbenzyl)benzamide], the IC50 at PTP ZETA, on PTP PEST and on PTP DEP1 was more than 100 µM in each case.
Regarding `O=S(=O)(Nc1ccc(CCc2ccc(NS(=O)(=O)C(F)(F)F)cc2)cc1)C(F)(F)F` [Example 66, 1,2-Bis(4-trifluoromethylsulfonamidophenyl)ethane], the IC50 on PTP ZETA was more than 100 µM; on PTP PEST, 13.3 µM; on PTP DEP1, more than 100 µM.
On to `Cc1cc(NS(=O)(=O)C(F)(F)F)ccc1CCc1ccc(NS(=O)(=O)C(F)(F)F)cc1C` [Example 67, 1,2-Bis(2-methyl-4-trifluoromethylsulfonamidophenyl)ethane], for which the 50% inhibitory concentration (IC50) on PTP ZETA was more than 100 µM; on PTP PEST, 10.5 µM; at PTP DEP1, 85.6 µM.
For `CC(C)(COc1ccc(NS(=O)(=O)C(F)(F)F)cc1)COc1ccc(NS(=O)(=O)C(F)(F)F)cc1` [Example 68, 1,3-Bis(4-trifluoromethylsulfonamidophenoxy)-2,2-dimethylpropane], in that order: more than 100 µM, 9.33 µM and 25 µM.
The like results for `O=S(=O)(Nc1ccc(OCCCOc2ccc(NS(=O)(=O)C(F)(F)F)cc2)cc1)C(F)(F)F` [Example 69, 1,3-Bis(4-trifluoromethylsulfonamidophenoxy)propane] were, in that order, more than 100 µM, 7.86 µM and more than 100 µM.
For `O=S(=O)(Nc1ccc(OCCCCOc2ccc(NS(=O)(=O)C(F)(F)F)cc2)cc1)C(F)(F)F` [Example 70, 1,4-Bis(4-trifluoromethylsulfonamidophenoxy)butane], in that order: more than 100 µM, 6.75 µM and 24.5 µM.
`O=S(=O)(Nc1ccc(Oc2ccc(Oc3ccc(NS(=O)(=O)C(F)(F)F)cc3)cc2)cc1)C(F)(F)F` [Example 71, 1,4-Bis(4-trifluoromethylsulfonamidophenoxy)benzene]: the IC50 at PTP ZETA worked out at 64.3 µM; at PTP PEST, 0.98 µM; at PTP DEP1, 49 µM.
With `Nc1ccc(Oc2ccc(Oc3ccc(N)cc3)cc2)cc1` [NH2], the “activity relative to the CF3SO2NH— compound” value in the experiment on PTPs was “complete loss of activity”.
